Each block holds one molecule with its values, some of them ahead of it.
What was measured:
[1] = Pharmacokinetic profiles of PTH(1-34) formulations after intestinal administration (Example 3); format: in vivo, Sprague Dawley rats; details: relative to PTH(1-34) s.c.
Protocol: Teriparatide (PTH1-34) was dosed subcutaneously in volume of 1 ml/kg (final concentration 0.024 mg/ml teriparatide) to anaesthetized rats. TER001 and TER002 were dosed into ileum in volume of 0.4 mi/kg (final concentration 0.24 mg/ml teriparatide) to anaesthetized rats. […] The teriparatide plasma concentrations were determined using commercial pTH (1-34) human ELISA kit (Biovendor, EU, cat. number RS-1163.0001).

[2] = study comparing aprotinin with aminocaproic acid; cited from earlier work
[3] = GLP-1 peptide formulations with SNAC and trace elements: dissolution in aqua purificata, visual (Example 4); format: physicochemical; details: liraglutide 1.8 mg/ml, SNAC 20 mg, trace element 2 mg, disodium phosphate dihydrate, 2 ml aqua purificata
Protocol: Compositions comprising a GLP-1 peptide, a complexing agent (disodium phosphate dihydrate), the absorption enhancer N-(8-[2-hydroxybenzoyl]amino)caprylic acid (SNAC) and various trace elements or metal salts were prepared and dissolved in 2 ml of aqua purificata and examined visually.

[4] = biological target: chymotrypsin (Bos taurus, UniProt P00766); experiment: Chymotrypsin inhibition, BTPNA substrate, absorbance at 405 nm (Examples 9, 13-19, 23, 24, 27, 30, 31); details: for Inhibition %: Example 15
Protocol: CuSO4.5H2O dilutions in 10 mM TRIS buffer pH 7 to 10 mM, 5 mM, 2.5 mM 1.25 mM Benzoyl-Tyrosine p-nitroanilide (BTPNA): 0.5 mg/mL BTPNA in Acetone
Study: • (1) 100 μl buffer (10 mM TRIS, pH=7)+50 μl Chymotrypsin Stock+50 μl BTPNA • (2) 80 μl buffer (10 mM TRIS, pH=7)+20 μl CuSO4 stock (10 mM)+50 μl Chymotrypsin Stock+50 μl BTPNA • (3) 80 μl buffer (10 mM TRIS, pH=7)+20 μl CuSO4 dilut. (5 mM)+50 μl Chymotrypsin Stock+50 μl BTPNA • (4) 80 μl buffer (10 mM TRIS, pH=7)+20 μl CuSO4 stock (2.5 mM)+50 μl Chymotrypsin Stock+50 μl BTPNA • (5) 80 μl buffer (10 mM TRIS, pH=7)+20 μl CuSO4 dilut. (1.25 mM)+50 μl Chymotrypsin Stock+50 μl BTPNA
Final copper concentrations: 1 mM, 0.5 mM, 0.25 mM, 0.125 mM.
10 mM CuSO4 and Copper gluconate stock solution were diluted 1:1 with 10 mM TRIS buffer pH 7
Study: • (1) 100 μl buffer (10 mM TRIS, pH=7)+50 μl Chymotrypsin Stock+50 μl BTPNA • (2) 80 μl buffer (10 mM TRIS, pH=7)+20 μl CuSO4 dil. (5 mM)+50 μl Chymotrypsin Stock+50 μl BTPNA • (3) 80 μl buffer (10 mM TRIS, pH=7)+20 μl Copper gluconate dilut. (5 mM)+50 μl Chymotrypsin Stock+50 μl BTPNA • (4) 100 μl Cu-bisglycinate stock (0.5 mM)+50 μl Chymotrypsin Stock+50 μl BTPNA
10 mM CuSO4 stock solution was diluted 1:1 with 10 mM TRIS Puffer pH 7
Study: • (1) 30 μl buffer (10 mM TRIS, pH=7)+20 μl CuSO4 dil. (5 mM)+100 μl Chymotrypsin Stock: 30 min. incubation, then addition of 50 μl BTPNA • (2) 30 μl buffer (10 mM TRIS, pH=7)+100 μl Chymotrypsin Stock: 30 min. incubation, then addition of 20 μl CuSO4 dil. (5 mM)+50 μl BTPNA
Final copper concentration: 0.5 mM
Iron(II)-bisglycinate solution containing 1.86 mM of iron in 10 mM TRIS buffer pH 7 was prepared
Cu(II)-gluconate solution containing 2.0 mM of copper in 10 mM TRIS buffer pH 7 was prepared
Study: • (1) 100 μl buffer (10 mM TRIS, pH=7)+50 μl Chymotrypsin Stock+50 μl BTPNA • (2) 100 μl iron(II)-bisglycinate+50 μl Chymotrypsin Stock+50 μl BTPNA • (3) 100 μl copper(II)-gluconate+50 μl Chymotrypsin Stock+50 μl BTPNA
Values were corrected (subtraction of blank). Inhibition was calculated by setting the absorption value of (1) at each time-point as 100%.
Iron(II)-bisglycinate solution containing 0.46 mM of iron in 10 mM TRIS buffer pH 7 was prepared
Cu(II)- bisglycinate solution containing 0.46 mM of copper in 10 mM TRIS buffer pH 7 was prepared
Study: • (1) 100 μl buffer (10 mM TRIS, pH=7)+50 μl Chymotrypsin Stock+50 μl BTPNA • (2) 100 μl iron(II)-bisglycinate+50 μl Chymotrypsin Stock+50 μl BTPNA • (3) 100 μl copper(II)-bisglycinate+50 μl Chymotrypsin Stock+50 μl BTPNA
Values were corrected (subtraction of blank). Inhibition (%) was calculated by setting the absorption value of (1) at each time-point as 100% degradation.
Values were corrected (subtraction of blank). pH was confirmed to be pH 7 after the experiment.
0.025 mg/ml Chymotrypsin, 0.05 mg/mL Benzoyl-Tyrosine p-nitroanilide (BTPNA). Lauryl glutamate: 0.25 mg/ml; copper (as copper gluconate): 0.035 mg/ml.
0.025 mg/ml Chymotrypsin, 0.05 mg/mL Benzoyl-Tyrosine p-nitroanilide (BTPNA). Lauryl glutamate: 0.25 mg/ml; iron (as iron gluconate): 0.03 mg/ml.
100 μl 50 mM TRIS pH 7+50 μL Chymotrypsin Stock+50 μL BTPNA Stock
50 μl Beta-cyclodextrin+50 μl 50 mM TRIS pH 7+50 μL Chymotrypsin Stock+50 μL BTPNA Stock
50 μl copper gluconate+50 μl 50 mM TRIS pH 7+50 μL Chymotrypsin Stock+50 μL BTPNA Stock
50 μl copper gluconate+50 μl Beta-cyclodextrin+50 μL Chymotrypsin Stock+50 μL BTPNA Stock
50 μl copper gluconate+50 μl trisodium phosphate+50 μL Chymotrypsin Stock+50 μL BTPNA Stock
50 μl iron gluconate+50 μl trisodium phosphate+50 μL Chymotrypsin Stock+50 μL BTPNA Stock
Experiments were carried out at pH 7 in 50 mM TRIS buffer.

[5] = biological target: T1, trypsin (Bos taurus, UniProt P00760); experiment: Trypsin inhibition, BAPNA substrate, absorbance at 405 nm (Examples 10-12, 20-22, 25, 26, 28, 29, 33); format: biochemical
T1 construct: gene PRSS1
T1 sequence (P00760 24-246): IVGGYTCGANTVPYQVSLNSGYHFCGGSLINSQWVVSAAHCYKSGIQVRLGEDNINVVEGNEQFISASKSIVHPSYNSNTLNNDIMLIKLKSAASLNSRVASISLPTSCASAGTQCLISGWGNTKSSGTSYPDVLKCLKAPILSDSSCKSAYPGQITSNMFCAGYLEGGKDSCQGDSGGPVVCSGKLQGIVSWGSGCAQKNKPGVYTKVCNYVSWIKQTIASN
Protocol: 100 mg/ml copper gluconate in 50 mM TRIS pH 7; pH was adjusted to pH 7; stock solution was diluted to the following concentrations: 50 mg/ml, 25 mg/ml, 12.5 mg/ml, 5 mg/ml, 6.25 mg/ml, 3.125 mg/ml, 2.5 mg/ml, 1.25 mg/ml, 0.625 mg/ml, 0.313 mg/ml, 0.156 mg/ml and 0.078 mg/ml
0.5 mg/mL Benzoyl-Arginine p-nitroanilide (BAPNA)
100 μl 50 mM TRIS pH 7+50 μL Trypsin Stock+50 μL BAPNA Stock
100 μl Copper solution (according to the above described dilutions)+50 μL Trypsin Stock+50 μL BAPNA Stock
Absorption was measured after 15 minutes at 405 nm.
Values were corrected (subtraction of blank).
100 mg/ml Zinc bisglycinate in 50 mM TRIS pH 7; pH was adjusted to pH 7; stock solution was diluted to the following concentrations: 50 mg/ml and 25 mg/ml
100 μl Zinc solution (according to the above described dilutions)+50 μL Trypsin Stock+50 μL BAPNA Stock
10 mg/ml iron gluconate in 50 mM TRIS pH 7; pH was adjusted to pH 7; stock solution was diluted to the following concentrations: 5 mg/ml, 2.5 mg/ml, 1.25 mg/ml and 0.625 mg/ml
100 μl Iron solution (according to the above described dilutions)+50 μL Trypsin Stock+50 μL BAPNA Stock
Absorption was measured directly at 405 nm.
Benzoyl-Arginine p-nitroanilide (BAPNA): 0.5 mg/ml in 50 mM TRIS pH 7 (centrifuged and supernatant used as stock solution)
Trypsin: […] in 50 mM TRIS pH 7
1 mg/mL iron gluconate in 10 mM TRIS pH 7 (iron content=12%), 0.12 mg/ml iron
12 mg/mL copper lysinate in 10 mM TRIS pH 7 (copper content=3%), 0.12 mg/ml copper
100 μl of the respective salt solution+50 μL Trypsin Stock+50 μL BAPNA Stock
Experiments were carried out at pH 7, 50 mM TRIS.
0.025 mg/ml Trypsin, 0.125 mg/mL Benzoyl-Arginine p-nitroanilide (BAPNA.) Lauryl glutamate:
0.25 mg/ml; copper content (as copper(II)gluconate): 0.035 mg/ml.
Adsorption measurement at 405 nm
0.025 mg/ml Trypsin, 0.125 mg/mL Benzoyl-Arginine p-nitroanilide (BAPNA). lauryl-glutamate:
Absorption measurement at 405 nm
0.025 mg/ml Trypsin, 0.125 mg/mL Benzoyl-Arginine p-nitroanilide (BAPNA). Capryl-glucoside:
Copper sulfate stock solution: 1 mg/ml of copper sulfate was dissolved in 50 mM TRIS pH 7. Copper tartrate stock solution: 1 mg/ml of copper tartrate was dispersed in 50 mM TRIS pH 7 and moderately stirred for 5 minutes. The suspension was then centrifuged at 3′000 rpm for 10 minutes, to separate the insoluble salt. The supernatant was used as stock solution for the experiments.
Zinc orotate stock solution: 1 mg/ml of zinc orotate was dispersed in 50 mM TRIS pH 7 and moderately stirred for 5 minutes. The suspension was then centrifuged at 3′000 rpm for 10 minutes, to separate the insoluble salt. The supernatant was used as stock solution for the experiments.
100 μL of the respective salt solution stock+50 μL Trypsin Stock+50 μL BAPNA Stock
Control: 100 μL of 50 mM TRIS pH 7+50 μL Trypsin Stock+50 μL BAPNA Stock
Final concentrations of protease and substrate were 0.025 mg/ml Trypsin, 0.125 mg/mL
50 μl manganese sulfate+50 μl copper gluconate+50 μL Trypsin Stock+50 μL BAPNA Stock
Absorption measurement at 405 nm; final pH in all solutions was monitored to be pH 7.
3 mg/ml SiO2—suspended in 50 mM TRIS pH 7 and centrifuged; supernatant was used for experiments.
50 μl SiO2+50 μl 50 mM TRIS pH 7+50 μL Trypsin Stock+50 μL BAPNA Stock
50 μl copper gluconate+50 μl SiO2+50 μL Trypsin Stock+50 μL BAPNA Stock
50 μl iron gluconate+50 μl SiO2+50 μL Trypsin Stock+50 μL BAPNA Stock
120 μl 50 mM TRIS pH 7+50 μL Trypsin Stock+50 μL BAPNA Stock
80 μl copper gluconate+40 μl 50 mM TRIS pH 7+50 μL Trypsin Stock+50 μL BAPNA Stock
40 μl copper gluconate+80 μl 50 mM TRIS pH 7+50 μL Trypsin Stock+50 μL BAPNA Stock
80 μl iron gluconate+40 μl 50 mM TRIS pH 7+50 μL Trypsin Stock+50 μL BAPNA Stock
40 μl iron gluconate+80 μl 50 mM TRIS pH 7+50 μL Trypsin Stock+50 μL BAPNA Stock
80 μl iron gluconate+40 μl copper gluconate+50 μL Trypsin Stock+50 μL BAPNA Stock

[6] = Pharmacokinetic profile of octreotide formulations after administration into proximal jejunum (Example 8)
Protocol: The formulations OCT002, OCT003 and OCT004 were dissolved in an octreotide stock solution 5-10 min prior to dosing into proximal jejunum in volume of 0.4 ml/kg to anaesthetized rats. The final octreotide concentration of each formulation was 0.36 mg/kg. Blood was taken from tail vessels at the time points 0, 10, 20, 40, 60, 90 and 120 min after dosing. The octreotide plasma concentration was determined using commercial octreotide kit (Peninsula Laboratories International, Inc., USA, cat.number S-1342.0001).

[7] = Sprague Dawley, rat, in vivo, sc

F [1]: 100 ± 23%
Molecule: CC[C@H](C)[C@H](NC(=O)[C@H](CCC(=O)O)NC(=O)[C@H](CO)NC(=O)[C@@H](NC(=O)[C@@H](N)CO)C(C)C)C(=O)N[C@@H](CCC(N)=O)C(=O)N[C@@H](CC(C)C)C(=O)N[C@@H](CCSC)C(=O)N[C@@H](Cc1cnc[nH]1)C(=O)N[C@@H](CC(N)=O)C(=O)N[C@@H](CC(C)C)C(=O)NCC(=O)N[C@@H](CCCCN)C(=O)N[C@@H](Cc1cnc[nH]1)C(=O)N[C@@H](CC(C)C)C(=O)N[C@@H](CC(N)=O)C(=O)N[C@@H](CO)C(=O)N[C@@H](CCSC)C(=O)N[C@@H](CCC(=O)O)C(=O)N[C@@H](CCCN=C(N)N)C(=O)N[C@H](C(=O)N[C@@H](CCC(=O)O)C(=O)N[C@@H](Cc1c[nH]c2ccccc12)C(=O)N[C@@H](CC(C)C)C(=O)N[C@@H](CCCN=C(N)N)C(=O)N[C@@H](CCCCN)C(=O)N[C@@H](CCCCN)C(=O)N[C@@H](CC(C)C)C(=O)N[C@@H](CCC(N)=O)C(=O)N[C@@H](CC(=O)O)C(=O)N[C@H](C(=O)N[C@@H](Cc1cnc[nH]1)C(=O)N[C@@H](CC(N)=O)C(=O)N[C@@H](Cc1ccccc1)C(=O)O)C(C)C)C(C)C [PTH (1-34) s.c., Teriparatide]

Molecule: Aprotinin
increase in mortality [2]: 64%

Molecule: Copper gluconate
Dissolution in aqua purificata [3]: Clear yellowish solution
Inhibition % ([4]; 0 minutes, metal ion Fe 0.06 mg/ml (0.92 mM), Cu 0.065 mg/ml (1.0 mM), 10 mM TRIS pH 7): 0%
Inhibition % ([4]; 15 minutes, metal ion Fe 0.92 mM, Cu 1.0 mM): 82%
Inhibition % ([4]; 30 minutes, metal ion Fe 0.92 mM, Cu 1.0 mM): 84%
Inhibition % ([4]; 45 minutes, metal ion Fe 0.92 mM, Cu 1.0 mM): 82%
Inhibition % ([4]; 60 minutes, metal ion Fe 0.92 mM, Cu 1.0 mM): 79%
chymotrypsin inhibition ([4]; Example 18, stocks: copper gluconate 10 mM, EDTA 5 mM, sodium caprylate 4 mg/ml, pH 7, FIG. 9): can inhibit chymotrypsin
chymotrypsin inhibition ([4]; Example 23, lauryl glutamate […], copper […], pH 7, 50 mM TRIS, FIG. 14): can be inhibited
chymotrypsin inhibition ([4]; Example 27, stocks […] copper(II)gluconate, 1 mg/ml beta-cyclodextrin, FIG. 18): can be inhibited
chymotrypsin inhibition ([4]; Example 31, stocks […] copper(II)gluconate, 1.25 mM EDTA, pH 7, 10 mM TRIS, FIG. 22): can be inhibited
inhibition of trypsin ([5]; Example 10, copper gluconate solutions 100 to 0.078 mg/ml, 50 mM TRIS pH 7, after 15 minutes, FIG. 3): inhibits the proteolytic enzyme trypsin in a dose dependent manner
trypsin inhibition ([5]; Example 20, solutions 1 mg/mL iron gluconate, 1 mg/mL copper gluconate, 12 mg/mL copper lysinate, FIG. 11): can be inhibited
trypsin inhibition ([5]; Example 21, lauryl glutamate […], copper […], pH 7, 50 mM TRIS, FIG. 12): can be inhibited
trypsin inhibition ([5]; Example 28, stocks 1 mg/ml copper(II)gluconate, 1 mg/ml manganese(II)sulfate, pH 7, FIG. 19): can be inhibited
trypsin inhibition ([5]; Example 33, stocks 1 mg/ml copper(II)gluconate, 1 mg/ml iron(II)gluconate, 40 or 80 μl, pH 7, FIG. 23): can be inhibited

Molecule: O=S(=O)([O-])[O-].[Cu+2] [Copper sulfate]
Dissolution in aqua purificata [3]: precipitation
inhibition of chymotrypsin ([4]; Example 9, final copper 1, 0.5, 0.25, 0.125 mM, 10 mM TRIS pH 7, FIG. 2): inhibits the proteolytic enzyme chymotrypsin in a dose dependent manner
influence of copper pre-incubation on chymotrypsin activity ([4]; Example 14, CuSO4, final copper 0.5 mM, 30 min pre-incubation, FIG. 7): increases the chymotrypsin inhibitory activity
trypsin inhibition ([5]; pH 7): strongly inhibited

Molecule: C[C@@H](O)[C@@H]1NC(=O)[C@H](CCCCN)NC(=O)[C@@H](Cc2c[nH]c3ccccc23)NC(=O)[C@H](Cc2ccccc2)NC(=O)[C@@H](NC(=O)[C@H](N)Cc2ccccc2)CSSC[C@@H](C(=O)N[C@H](CO)[C@@H](C)O)NC1=O [Reference (s.c.), Octreotide]
ΔAUC(0-120) ([6]; OCT formulations 0.4 ml/kg into proximal jejunum, octreotide 0.36 mg/kg, reference s.c., anaesthetized rats): 14126 ± 2727 ng·min/mL
bioavailability ([6]; Sprague Dawley, rat, in vivo): 100 ± 19%
Cmax [6, 7]: 0.148 ± 0.036 µg/mL
Tmax [6, 7]: 1.5 h
